From patent publication US8217042B2, “Pyridopyrazines and their use as modulators of kinases” (Zentaris GmbH, priority 2005, dated 2012) come the findings set out here.

The subject of one series is Jnk1 + Jnk2. The experiment in a line: Cell-free kinase assay (ALPHA technology), Jnk1 + Jnk2. The conditions noted are these: at 10 μM or 100 μM* ATP, recombinant human kinases. The format is biochemical. The protocol: The inhibitory effect of the inventive compounds was tested on various human serine/threonine kinases, tyrosine kinases and lipid kinases in enzymatic assays. Recombinant human kinases, for example Erk2, PI3Kalpha, -beta, -gamma, -delta, p38alpha, p38gamma, Jnk1, Jnk2 and others were used, in some cases as full-length kinases, in some cases as truncated fragments—but at least consisting of the functional kinase domains. The commercial kinase proteins (Proqinase, Upstate) were used as recombinant fusion proteins with GST (glutathione S-transferase) tag or His tag. Depending on the substrate type, the different kinase reactions were quantified by means of suitable ALPHA™ beads (PerkinElmer). […]
(§1) The fluorescence was detected the next morning in a Fusion™ alpha instrument (Perkin Elmer).
(§2) The calculation of % inhibition values per substance concentration was done by means of the following formula from the raw data determined in the Fusion™ alpha:
(§3) The controls were each determined 8 times, the substance samples each twice. 0% control contained neither any ATP nor any substrate; the 100% control contained no test substance. The IC50 values were determined with GraphPadPrism.

Another series concerns PI3K →pAkt. Kind of series: Cellular substrate phosphorylation (Western blotting), PI3K substrate Akt. The conditions noted are these: 5 h, tumour cell line. It is filed as cell-based. How it is done: (§4) This method enables a statement of whether the kinase modulator investigated achieves the desired effect in a cellular context too, i.e., in this case, a substrate protein downstream of the target kinase is examined for its phosphorylation status. To this end, the cells incubated with substance are lysed and the overall protein is separated on a reducing polyacrylamide gel. Subsequently, the proteins are transferred by means of Western blotting to a PVDF membrane and the substrate bands sought are made visible with specific antibodies and a suitable detection method. The substrate proteins downstream of the target kinases are detected simultaneously with an anti-phospho antibody which is specific in each case and simultaneously a total antibody which recognizes the substrate total protein. The duplex technology of the ODYSSEY imager (LiCOR) enables this simultaneous measurement. The intensity of the total substrate bands is employed to normalize and quantify the phosphorylation inhibition or activation.
(§5) Suitable tumour cell lines (e.g. BxPC3, Hct116 or MDA MB468) were seeded into 6-well microtitre plates in a defined cell count (e.g. 350 000 cells/well for BxPC3 and Hct116) in the particular standard complete media and then incubated overnight in an incubator at 37° C., 5% CO2 and 95% air humidity. The cells were then incubated further for a further 24 h under reduced-serum conditions, i.e. in the particular medium except at only 0.25% serum. The test substances were made up as stock solutions (10 mM) in DMSO and incubated with the cells at final concentrations of 5, 15.8 and 50 μM for 5 h. This was followed by cell lysis in 25 mM Tris, 150 mM NaCl, 10 mM sodium pyrophosphate, 2 mM EGTA, 25 mM beta-glycerophosphate, 25 mM NaF, 10% glycerol, 0.75% NP-40, 100 μM NaVO4 buffer. After protein quantification by means of BCA (bicinchonic acid protein assay kit, Sigma) assay, amounts of protein of about 20 μg per track were separated on a Lammli polyacrylamide gel and then transferred onto a PVDF membrane (Millipore) by means of semi-dry Western blotting at 0.8 mA/cm^2 for 1 h. This was followed by prehybridization of the membrane for 1 hour in I-block reagent (Applied Biosystems) and overnight incubation with the specific antibodies. To determine the Erk and PI3K inhibition, the next substrates Rsk1 downstream were detected with the total antibody (Rsk #sc-231g C-21, Santa Cruz) and the phospho antibody (Phospho-p90RSK (S380) #9341, NEB Cell Signalling) and Akt with the total antibody (Akt1 #sc-20, Santa Cruz) and the phospho antibody (Phospho-Akt (Ser 473) #9271, NEB Cell Signaling). After the membrane had been washed, the secondary antibodies were incubated with anti-rabbit IR Dye 800 (#611-732-127, Rockland) for the phospho antibody and anti-goat Alexa Fluor 680 (#A-21081, […]) for the total protein antibody. After incubation for 30 min at room temperature in the dark, the hybridization of the detection antibody was detected on the membrane by scanning in an ODYSSEY imager (LiCOR).
In general terms: A western blot detects proteins with antibodies after separation by electrophoresis.

Another series concerns Erk →pRsk. The experiment in a line: Cellular substrate phosphorylation (Western blotting), Erk substrate Rsk1. The format is cell-based. The conditions noted are these: 5 h, tumour cell line. The protocol: as §4, §5
For another series, the system named is MDA-MB468. The experiment in a line: XTT assay, anti-proliferative action, MDA-MB468. The format is cell-based. The conditions noted are these: Homo sapiens, MDA-MB-468, 45 h, MDA-MB468 cells, 45 h incubation. How it is done:
(§6) The principle of this test is based on the intracellular reduction of the tetrazolium dye XTT (sodium 3′-[1-(phenylaminocarbonyl)-3,4-tetrazolium]bis(4-methoxy-6-nitro)benzenenesulphonic acid, Sigma) to a formazan dye by mitochondrial dehydrogenases.
(§7) The dye is formed only by metabolically active cells; its photometrically measurable intensity is a quantitative indicator for the presence of living cells. The reduction in the dye formation as a result of incubation of the cells with substances serves as a parameter for the anti-proliferative action.
(§8) The tumour cell lines (ATCC) were seeded in 96-well microtitre plates in a defined cell count (5000 cells/well for BxPC3 and Hct116; 10 000 cells/well for MDA MB468), and then incubated overnight in an incubator at 37° C., 5% CO2 and 95% air humidity. The test substances were made up as stock solutions (10 mM) in DMSO. […] The cell plates were then incubated for 45 h in an incubator at 37° C., 5% CO2 and 95% air humidity.
(§9) For the detection reaction, the XTT substrate was admixed with PMS (N-methyldibenzopyrazine methylsulphate, Sigma) and added to the cells, so as to result in a final concentration of 325 μg of XTT/ml and 2.5 μg PMS/ml. The mixture was then incubated for 3 h at 37° C., 95% air humidity. Subsequently the formazan salt formed by cellular dehydrogenases was quantified at an absorption of 490 nm.
(§10) The evaluation of the % inhibition values was done by means of the following formula from the values for the optical densities measured in each case at 490 nm:
(§11) The controls were determined 8 times each, the substance samples twice each. 0% control contained no cells; the 100% control contained no test substance. The EC50 values were determined with GraphPadPrism.
Background: Tetrazolium assays rely on reduction of a dye to a coloured formazan, in cell work by metabolically active cells.

The test system of the next series is Hct116. The experiment in a line: XTT assay, anti-proliferative action, Hct116. The format is cell-based. The conditions noted are these: Homo sapiens, HCT-116, 45 h, Hct116 cells, 45 h incubation. The protocol: as §6, §7, §8, §9, §10, §11
The test system of another series is BxPC3. Kind of series: XTT assay, anti-proliferative action, BxPC3. The format is cell-based. The conditions noted are these: Homo sapiens, BXPC-3, 45 h, BxPC3 cells, 45 h incubation. The protocol:
as §6, §7, §8, §9, §10, §11

Another series concerns the target T1, Erk2.
T1 construct: in some cases as full-length kinases, in some cases as truncated fragments; purchased Upstate 14-173
The experiment in a line: Cell-free kinase assay (ALPHA technology), Erk2-ALPHA. The format is biochemical. The conditions noted are these: 10 μM ATP, recombinant human kinase. How it is done: (§12) The inhibitory effect of the inventive compounds was tested on various human serine/threonine kinases, tyrosine kinases and lipid kinases in enzymatic assays. Recombinant human kinases, for example Erk2, PI3Kalpha, -beta, -gamma, -delta, p38alpha, p38gamma, Jnk1, Jnk2 and others were used, in some cases as full-length kinases, in some cases as truncated fragments—but at least consisting of the functional kinase domains. The commercial kinase proteins (Proqinase, Upstate) were used as recombinant fusion proteins with GST (glutathione S-transferase) tag or His tag. Depending on the substrate type, the different kinase reactions were quantified by means of suitable ALPHA™ beads (PerkinElmer).
(§13) The substrate testing on the Erk assay is described in detail below. Selected test results of the Erk2, PI3Kalpha assays are cited below. […] The kinase reaction was then stopped by adding 10 μl of the ALPHA bead mix (10 μg/ml, #6760617/PerkinElmer), pre-incubated with anti-phospho MBP antibody (320 μM, #05-429/Upstate), in 25 mM Tris, 200 mM NaCl, 100 mM EDTA and 0.3% BSA, and left to stand overnight. • b) PI3K-ALPHAs (e.g. PI3Kalpha): The test substance, 1 ng of PI3Kalpha (#14-602, Upstate), 100 μM ATP and 20 μM PIP2 substrate (#P4508, Echelon) on a 384-well Optiplate (Perkin Elmer) for 1 h in 50 mM Hepes, 50 mM NaCl, 5 mM MgCl2, 0.05% Chaps, 5 mM DTT at pH 7.4. Subsequently, the kinase reaction was stopped by adding the ALPHA bead mix (10 μg/ml, #6760603/PerkinElmer), preincubated with 1 nM GST:Grp1 fusion protein (Upstate) and 15 nM biotinylated PIP3 (#C-39B6/Echelon) in 50 mM Hepes, 50 mM NaCl, 50 mM EDTA and 0.1% BSA, and left to stand overnight.
as §1, §2, §3

The target in the next series is T2, PI3Kalpha (Homo sapiens, UniProt P42336).
T2 construct: in some cases as full-length kinases, in some cases as truncated fragments; purchased Upstate 14-602
T2 sequence (P42336 whole entry, the tested form may be a part): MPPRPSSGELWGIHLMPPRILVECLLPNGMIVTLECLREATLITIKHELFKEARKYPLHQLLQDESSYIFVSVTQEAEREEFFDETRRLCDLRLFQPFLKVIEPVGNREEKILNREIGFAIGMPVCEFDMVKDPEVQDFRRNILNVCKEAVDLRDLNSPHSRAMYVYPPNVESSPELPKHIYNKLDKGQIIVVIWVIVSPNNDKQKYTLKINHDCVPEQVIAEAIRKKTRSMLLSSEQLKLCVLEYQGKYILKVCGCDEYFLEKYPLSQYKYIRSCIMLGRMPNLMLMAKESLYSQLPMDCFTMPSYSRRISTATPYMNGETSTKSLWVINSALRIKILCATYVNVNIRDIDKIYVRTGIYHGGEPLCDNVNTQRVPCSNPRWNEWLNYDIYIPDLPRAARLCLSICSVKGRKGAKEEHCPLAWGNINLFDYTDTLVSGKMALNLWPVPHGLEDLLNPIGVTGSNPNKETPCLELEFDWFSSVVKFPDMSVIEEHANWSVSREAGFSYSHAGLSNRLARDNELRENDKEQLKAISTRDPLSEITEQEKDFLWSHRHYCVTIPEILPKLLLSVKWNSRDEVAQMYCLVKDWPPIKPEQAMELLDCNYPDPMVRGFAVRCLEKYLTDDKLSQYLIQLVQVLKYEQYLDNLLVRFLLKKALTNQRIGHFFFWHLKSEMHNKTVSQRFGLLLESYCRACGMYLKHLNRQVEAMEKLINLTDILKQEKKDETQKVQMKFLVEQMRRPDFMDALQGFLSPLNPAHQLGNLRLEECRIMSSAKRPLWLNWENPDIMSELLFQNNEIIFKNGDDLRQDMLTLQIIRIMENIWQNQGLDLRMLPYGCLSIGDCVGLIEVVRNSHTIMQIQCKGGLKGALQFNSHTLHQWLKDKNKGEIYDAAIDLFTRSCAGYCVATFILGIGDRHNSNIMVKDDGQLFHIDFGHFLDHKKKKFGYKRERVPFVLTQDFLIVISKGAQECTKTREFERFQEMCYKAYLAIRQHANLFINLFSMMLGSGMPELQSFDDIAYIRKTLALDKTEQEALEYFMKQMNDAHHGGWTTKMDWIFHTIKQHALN
T2 sequence (P27986 whole entry partner, the tested form may be a part): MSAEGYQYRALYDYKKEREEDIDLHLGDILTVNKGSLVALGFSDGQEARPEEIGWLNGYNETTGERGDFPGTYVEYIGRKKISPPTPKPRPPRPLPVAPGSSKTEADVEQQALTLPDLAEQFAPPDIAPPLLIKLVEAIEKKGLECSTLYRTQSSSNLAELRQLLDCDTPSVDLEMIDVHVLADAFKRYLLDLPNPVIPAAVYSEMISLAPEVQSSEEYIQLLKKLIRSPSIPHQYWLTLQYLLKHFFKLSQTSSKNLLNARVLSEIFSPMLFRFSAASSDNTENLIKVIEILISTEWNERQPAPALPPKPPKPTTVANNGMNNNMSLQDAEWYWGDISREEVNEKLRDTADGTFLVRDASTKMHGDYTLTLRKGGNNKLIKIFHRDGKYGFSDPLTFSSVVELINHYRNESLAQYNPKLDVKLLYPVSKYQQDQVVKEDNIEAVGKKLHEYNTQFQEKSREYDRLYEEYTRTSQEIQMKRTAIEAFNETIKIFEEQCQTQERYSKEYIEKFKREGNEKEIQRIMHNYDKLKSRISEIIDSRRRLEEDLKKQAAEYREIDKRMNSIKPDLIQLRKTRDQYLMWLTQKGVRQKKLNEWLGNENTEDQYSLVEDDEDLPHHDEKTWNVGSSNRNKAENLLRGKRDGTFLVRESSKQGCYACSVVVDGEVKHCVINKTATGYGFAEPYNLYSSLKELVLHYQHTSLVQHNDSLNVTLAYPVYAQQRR
The experiment in a line: Cell-free kinase assay (ALPHA technology), PI3K-ALPHA. The conditions noted are these: 100 μM ATP, recombinant human kinase. The format is biochemical. How it is done:
as §12, §13, §1, §2, §3

Each structure is given as a SMILES string.

T1 sequence (P63085 whole entry, the tested form may be a part): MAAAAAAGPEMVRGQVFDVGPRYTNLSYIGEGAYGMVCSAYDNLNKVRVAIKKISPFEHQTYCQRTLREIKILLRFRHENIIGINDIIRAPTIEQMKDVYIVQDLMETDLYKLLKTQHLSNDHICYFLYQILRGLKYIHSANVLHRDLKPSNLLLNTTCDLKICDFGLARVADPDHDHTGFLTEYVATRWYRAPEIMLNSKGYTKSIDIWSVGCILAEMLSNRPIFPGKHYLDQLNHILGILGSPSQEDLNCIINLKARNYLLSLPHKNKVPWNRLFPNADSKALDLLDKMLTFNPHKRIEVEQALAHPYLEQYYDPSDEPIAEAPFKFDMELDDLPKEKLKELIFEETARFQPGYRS

As a reminder, the IC50 is the concentration that inhibits the measured activity by half. As usually defined, the inhibition is the relative decrease from the control value, in per cent. A low value points to a weak effect. As a reminder, the melting point is the temperature of the solid-liquid transition. `CCNC(=O)Nc1ccc2ncc(-c3ccc(OC(=O)OCCOC)cc3)nc2n1` [Compound 10, 4-[6-(3-Ethylurea)pyrido[2,3-b]pyrazin-3-yl]phenyl(2-methoxyethyl)carbonate] yielded a melting point of 230 to 232 °C. Moreover, the concentration for half-maximal inhibition (IC50) in the series on Jnk1 + Jnk2 was 2.9 µM. Moreover, the inhibition at 50 µM with PI3K →pAkt was determined as 100%. This compound returned an inhibition at 50 µM in the series with Erk →pRsk of 100%.

Usually EC50 stands for the concentration giving half of the maximal effect. On to `CCNC(=O)Nc1ccc(-c2cnc3ccc(NC(=O)NCC)nc3n2)cc1` [Compound 23, 1-Ethyl-3-{3-[4-(3-ethylurea)phenyl]pyrido[2,3-b]pyrazin-6-yl}urea], for which the melting point is > 350 °C (dec.). For the same compound, in the series on MDA-MB468, the EC50 is > 25 µM. In the series on Hct116, this compound returned a concentration for a half-maximal effect (EC50) of 16 µM. Also, the EC50 in the series on BxPC3 was > 50 µM. Besides, the IC50 in the series with Jnk1 + Jnk2 amounted to 5.7 µM. For the same compound, in the series on PI3K →pAkt, testing at 50 µM gave an inhibition of 70%. Moreover, the IC50 at Erk2 came out at 1.9 µM. For the same compound, the IC50 at PI3Kalpha was 1.3 µM. Further, in the series with Erk →pRsk, the inhibition at 50 µM was found to be 0%.

Regarding `CCNC(=O)Nc1ccc2ncc(-c3ccc(OC(=O)OCCOC)c(OC)c3)nc2n1` [Compound 32, 4-[6-(3-Ethylurea)pyrido[2,3-b]pyrazin-3-yl]-2-methoxyphenyl 2-methoxyethyl carbonate], the EC50 with MDA-MB468 came out at 4.5 µM; in the series on Hct116, 2.2 µM; with BxPC3 it was 5.9 µM. The IC50 in the series on Jnk1 + Jnk2 was 4.2 µM; on Erk2 it was 0.824 µM; at PI3Kalpha, 1.3 µM. The figures for the inhibition at 50 µM in the series with PI3K →pAkt and in the series on Erk →pRsk were 90% and 100%, respectively.
